Among the data in US7144720B2, “Protein and DNA thereof” (Takeda Chemical Industries, Ltd., priority 1998, dated 2006) are IC50 and fluorescent intensity values, retold here.

Peptide text beside a SMILES is read from it. * marks the point of attachment. Cbz = O=C(OCc1ccccc1)*; NHOH = ON*

Type in all cases: biochemical
One assay addresses T1, ADAM protein (Homo sapiens, UniProt Q9UKQ2).
T1 construct: made in house; host or cells: Escherichia coli BL21 (DE3)
T1 sequence (Q9UKQ2 199-495): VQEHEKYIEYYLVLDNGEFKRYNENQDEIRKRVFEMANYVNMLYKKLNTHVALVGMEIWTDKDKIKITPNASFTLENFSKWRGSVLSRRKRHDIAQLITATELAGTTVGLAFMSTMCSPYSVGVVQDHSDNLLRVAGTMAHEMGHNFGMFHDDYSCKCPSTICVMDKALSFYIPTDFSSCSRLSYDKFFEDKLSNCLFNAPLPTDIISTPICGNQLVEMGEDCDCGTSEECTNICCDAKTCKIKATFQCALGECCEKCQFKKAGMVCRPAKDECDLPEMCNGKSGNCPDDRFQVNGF
In words: Inhibition of the protease activity of the ADAM protein by test compounds. The following applies: Nma-Pro-Lys-Pro-Leu-Ala-Nva-Trp-Lys(DNP)-NH2 substrate, 37° C., 2 hours; read-out: IC50 value (concentration of a test compound which 50% inhibits the protease activity). On the procedure:
(§1) An enzymatic reaction was initiated by adding 75 μl of a buffer (83.3 mM Tris-HCl, pH 7.5, 16.7 mM NaCl, 1.67 mM CaCl2, 16.7 μM CoCl2, and 0.067% BSA) to a solution (25 μl) of the ADAM protein obtained according to the same manner as that of Example 3, and adding 25 μl of a solution of a substrate (50 μM Nma-Pro-Lys-Pro-Leu-Ala-Nva-Trp-Lys(DNP)-NH2, 0.05% BSA, and 5% DMSO). After a temperature was held at 37° C. for 2 hours, 100 μl of a 0.5M acetate buffer (pH 3.0) was added to stop the enzymatic reaction. The fluorescent intensity in the case of addition of no an enzyme solution [fluorescent intensity was measured at an excitation wavelength of 340 nm and a measuring wavelength of 450 nm using a fluorescent platereader (Corona MTP-32)] was 10, while the fluorescent intensity in the case of addition of the enzyme solution was 180.
10 μl of a test compound adjusted to the predetermined concentration (dissolved in 50% DMSO) was added to the above activity measuring system. […] From this, it was considered that search on a substance which regulates (inhibits or promotes) the protease activity of the present ADAM protein can be conducted using the present assay system.

The target of assay [1] is T2, MOCAc-Arg-Pro-Lys-Pro-Tyr-Ala-Nva-Trp-Met-Lys(DNP)-NH2 (Homo sapiens, UniProt Q9UKQ2).
T2 construct: made in house; host or cells: Escherichia coli BL21 (DE3)
T2 sequence (Q9UKQ2 199-495): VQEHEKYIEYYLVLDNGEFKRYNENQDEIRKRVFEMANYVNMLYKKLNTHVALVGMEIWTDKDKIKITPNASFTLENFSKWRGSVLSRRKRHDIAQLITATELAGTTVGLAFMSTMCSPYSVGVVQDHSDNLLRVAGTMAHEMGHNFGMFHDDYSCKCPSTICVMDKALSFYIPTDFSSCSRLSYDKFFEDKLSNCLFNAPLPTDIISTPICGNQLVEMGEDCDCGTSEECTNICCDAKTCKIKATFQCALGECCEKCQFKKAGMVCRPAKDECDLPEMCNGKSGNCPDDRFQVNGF
In words: Detection of the protease activity of recombinant ADAM protein (fluorogenic MOCAc peptide substrate). The following applies: 37° C. for 22 hour; excitation 328 nm, 393 nm; 10 μM substrate; intensity 2 when no protein added. As to the method:
30 μL of a buffer [250 mM Tris-hydrochloric acid (pH7.5), 5 mM calcium chloride, and 10 μM zinc chloride] and 20 μL of the recombinant ADAM protein (0.8 mg/mL) obtained in Example 3 were added to a 96-well plate (Fluoro B plate, manufactured by Dainihonseiyaku). After preincuvation at 37° C. for 10 minutes, an enzymatic reaction was initiated by adding 100 μL of a 10 μM substrate [MOCAc-Arg-Pro-Lys-Pro-Tyr-Ala-Nva-Trp -Met-Lys(DNP)-NH2, manufactured by Peptide Laboratory]. After the reaction at 37° C. for 22 hour, the fluorescent intensity in the reaction solution was measured at an excitation wave length of 328 nm and […] wave length of 393 nm using a microplatereader (manufactured by Applied Biosystems). The fluorescent intensity was 2 when no recombinant ADAM protein was added, while the fluorescent intensity of 70 was shown when the protein was added. From these, it was made clear that the present ADAM protein had the protease activity. It is considered that search of a substance which regulates (inhibits and promotes) the protease activity of the present ADAM protein is possible using this assay.

Assay [2] concerns the target T3, Nma-Pro-Lys-Pro-Leu-Ala-Nva-Trp-Lys(DNP)-NH2 (Homo sapiens, UniProt Q9UKQ2).
T3 construct: made in house; host or cells: Escherichia coli BL21 (DE3)
T3 sequence (Q9UKQ2 199-495): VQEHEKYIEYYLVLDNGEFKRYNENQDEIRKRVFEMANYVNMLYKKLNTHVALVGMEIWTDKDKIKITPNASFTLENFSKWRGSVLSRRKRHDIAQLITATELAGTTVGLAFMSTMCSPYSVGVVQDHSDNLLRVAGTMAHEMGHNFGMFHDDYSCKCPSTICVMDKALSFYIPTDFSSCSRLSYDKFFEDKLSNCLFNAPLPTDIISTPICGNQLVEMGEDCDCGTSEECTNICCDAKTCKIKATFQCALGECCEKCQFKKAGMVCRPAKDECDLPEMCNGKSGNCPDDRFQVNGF
In words: Protease activity of ADAM protein with Nma peptide substrate. To be noted: 37° C. for 2 hours; excitation 340 nm, measuring 450 nm; intensity 10 without enzyme solution. On the procedure: as §1

`CCCCC[C@H](CC(=O)NO)C(=O)N[C@H](C(=O)N1CCC[C@H]1CO)C(C)C` [actinonin]: at ADAM protein, the IC50 was found to be 600 µM.

With `CC(C)C[C@H](NC(=O)[C@@H]1CCCN1C(=O)OCc1ccccc1)C(=O)NCC(=O)NO` [N-CBZ-Pro-Leu-Gly-hydroxamate] (Cbz-Pro-Leu-Gly-{NHOH}), at ADAM protein, the IC50 was about 100 µM.

B1: recombinant ADAM protein: about 35 kDa His-tagged metalloprotease and disintegrin region of the novel human ADAM protein, expressed in Escherichia coli from pMDH (protein)
chain: VQEHEKYIEYYLVLDNGEFKRYNENQDEIRKRVFEMANYVNMLYKKLNTHVALVGMEIWTDKDKIKITPNASFTLENFSKWRGSVLSRRKRHDIAQLITATELAGTTVGLAFMSTMCSPYSVGVVQDHSDNLLRVAGTMAHEMGHNFGMFHDDYSCKCPSTICVMDKALSFYIPTDFSSCSRLSYDKFFEDKLSNCLFNAPLPTDIISTPICGNQLVEMGEDCDCGTSEECTNICCDAKTCKIKATFQCALGECCEKCQFKKAGMVCRPAKDECDLPEMCNGKSGNCPDDRFQVNGF
modifications: left off: small tags and cut ends
notes: about 35 kDa His-tagged metalloprotease and disintegrin region of the novel human ADAM protein, expressed in Escherichia coli from pMDH
Consider B1, for which the fluorescent intensity in assay [1] came to 70; in assay [2], 180.
